Data published in PubChem BioAssay (NCI).
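Each compound was tested at five concentrations against cells in 96-well plates for 48 hours. GI50 marks 50% less growth. TGI marks complete inhibition of growth.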

Tests used:
Assay in all cases: NCI anticancer screen, dose series, 48 h
SN12C renal = system: SN12C renal
MDA-MB-231 breast = system: MDA-MB-231 breast
NCI/ADR-RES ovarian = system: NCI/ADR-RES ovarian
A549 NSCLC = system: A549 NSCLC
SK-MEL-2 melanoma = system: SK-MEL-2 melanoma
NCI-H460 lung = system: NCI-H460 lung
UACC-257 melanoma = system: UACC-257 melanoma
RXF 393 renal = system: RXF 393 renal
ACHN renal = system: ACHN renal
K-562 leukemia = system: K-562 leukemia
PC-3 prostate = system: PC-3 prostate
HOP-62 NSCLC = system: HOP-62 NSCLC
LOX IMVI melanoma = system: LOX IMVI melanoma
HCC-2998 colon = system: HCC-2998 colon
EKVX NSCLC = system: EKVX NSCLC
HT29 colon = system: HT29 colon
SNB-19 CNS = system: SNB-19 CNS
OVCAR-5 ovarian = system: OVCAR-5 ovarian
786-0 renal = system: 786-0 renal
SW-620 colon = system: SW-620 colon
SF-268 CNS = system: SF-268 CNS
MCF7 breast = system: MCF7 breast
A498 renal = system: A498 renal
SK-MEL-28 melanoma = system: SK-MEL-28 melanoma
NCI-H522 lung = system: NCI-H522 lung
NCI-H226 lung = system: NCI-H226 lung
BT-549 breast = system: BT-549 breast
T-47D breast = system: T-47D breast
OVCAR-8 ovarian = system: OVCAR-8 ovarian
SF-539 CNS = system: SF-539 CNS
DU-145 prostate = system: DU-145 prostate
TK-10 renal = system: TK-10 renal
U251 CNS = system: U251 CNS
HCT-116 colon = system: HCT-116 colon
SR leukemia = system: SR leukemia
HL-60(TB) leukemia = system: HL-60(TB) leukemia
SF-295 CNS = system: SF-295 CNS
CAKI-1 renal = system: CAKI-1 renal
SK-OV-3 ovarian = system: SK-OV-3 ovarian
HS 578T breast = system: HS 578T breast
OVCAR-3 ovarian = system: OVCAR-3 ovarian
UACC-62 melanoma = system: UACC-62 melanoma
RPMI-8226 leukemia = system: RPMI-8226 leukemia
NCI-H23 lung = system: NCI-H23 lung
HCT-15 colon = system: HCT-15 colon
CCRF-CEM leukemia = system: CCRF-CEM leukemia
MOLT-4 leukemia = system: MOLT-4 leukemia
HOP-92 NSCLC = system: HOP-92 NSCLC
OVCAR-4 ovarian = system: OVCAR-4 ovarian
IGROV1 ovarian = system: IGROV1 ovarian
MALME-3M melanoma = system: MALME-3M melanoma
SNB-75 CNS = system: SNB-75 CNS
UO-31 renal = system: UO-31 renal
SK-MEL-5 melanoma = system: SK-MEL-5 melanoma
KM12 colon = system: KM12 colon

In the case of `COc1ccc(/C=C/C(=O)c2cc3c(N)c(C(=O)Nc4ccccc4C)sc3nc2C)cc1`, the GI50 (SN12C renal) is reported as 833 nM, the TGI (SN12C renal) is reported as > 50000 nM and the GI50 (MDA-MB-231 breast) is reported as 1180 nM. For the same compound, the TGI (MDA-MB-231 breast) was > 38500 nM, the GI50 (NCI/ADR-RES ovarian) was 228 nM and the TGI (NCI/ADR-RES ovarian) was 2000 nM. The GI50 (A549 NSCLC) was 905 nM, the TGI (A549 NSCLC) was > 50000 nM and the GI50 (SK-MEL-2 melanoma) was 387 nM. For the same compound, the TGI (SK-MEL-2 melanoma) was > 50000 nM, the GI50 (NCI-H460 lung) was 1530 nM and the TGI (NCI-H460 lung) was > 16600 nM. For the same compound, the GI50 (UACC-257 melanoma) was 16100 nM, the TGI (UACC-257 melanoma) was > 50000 nM and the GI50 (RXF 393 renal) was 140 nM. The TGI (RXF 393 renal) was 423 nM, the GI50 (ACHN renal) was 360 nM and the TGI (ACHN renal) was > 50000 nM. The GI50 (K-562 leukemia) was 267 nM, the TGI (K-562 leukemia) was > 50000 nM and the GI50 (PC-3 prostate) was 285 nM. For the same compound, the TGI (PC-3 prostate) was > 50000 nM, the GI50 (HOP-62 NSCLC) was 779 nM and the TGI (HOP-62 NSCLC) was > 50000 nM. The GI50 (LOX IMVI melanoma) was 768 nM, the TGI (LOX IMVI melanoma) was 5210 nM and the GI50 (HCC-2998 colon) was 1090 nM. For the same compound, the TGI (HCC-2998 colon) was 3610 nM, the GI50 (EKVX NSCLC) was 1880 nM and the TGI (EKVX NSCLC) was > 50000 nM. The GI50 (HT29 colon) was 487 nM, the TGI (HT29 colon) was > 50000 nM and the GI50 (SNB-19 CNS) was 1150 nM. For the same compound, the TGI (SNB-19 CNS) was > 50000 nM, the GI50 (OVCAR-5 ovarian) was 1390 nM and the TGI (OVCAR-5 ovarian) was > 50000 nM. For the same compound, the GI50 (786-0 renal) was 489 nM, the TGI (786-0 renal) was > 50000 nM and the GI50 (SW-620 colon) was 830 nM. For the same compound, the TGI (SW-620 colon) was > 50000 nM, the GI50 (SF-268 CNS) was 1240 nM and the TGI (SF-268 CNS) was > 50000 nM. The GI50 (MCF7 breast) was 240 nM, the TGI (MCF7 breast) was > 50000 nM and the GI50 (A498 renal) was 197 nM. The TGI (A498 renal) was 2640 nM, the GI50 (SK-MEL-28 melanoma) was 7140 nM and the TGI (SK-MEL-28 melanoma) was > 50000 nM. The GI50 (NCI-H522 lung) was 194 nM, the TGI (NCI-H522 lung) was > 50000 nM and the GI50 (NCI-H226 lung) was 619 nM. The TGI (NCI-H226 lung) was 12200 nM, the GI50 (BT-549 breast) was 568 nM and the TGI (BT-549 breast) was > 50000 nM. The GI50 (T-47D breast) was 322 nM, the TGI (T-47D breast) was > 50000 nM and the GI50 (OVCAR-8 ovarian) was 1140 nM. The TGI (OVCAR-8 ovarian) was > 50000 nM, the GI50 (SF-539 CNS) was 487 nM and the TGI (SF-539 CNS) was 1680 nM. The GI50 (DU-145 prostate) was 431 nM, the TGI (DU-145 prostate) was > 23400 nM and the GI50 (TK-10 renal) was 2480 nM. The TGI (TK-10 renal) was > 50000 nM, the GI50 (U251 CNS) was 1400 nM and the TGI (U251 CNS) was > 50000 nM. For the same compound, the GI50 (HCT-116 colon) was 530 nM, the TGI (HCT-116 colon) was > 50000 nM and the GI50 (SR leukemia) was 593 nM. For the same compound, the TGI (SR leukemia) was > 50000 nM, the GI50 (HL-60(TB) leukemia) was 239 nM and the TGI (HL-60(TB) leukemia) was 1990 nM. For the same compound, the GI50 (SF-295 CNS) was 497 nM, the TGI (SF-295 CNS) was > 50000 nM and the GI50 (CAKI-1 renal) was 392 nM. For the same compound, the TGI (CAKI-1 renal) was > 50000 nM, the GI50 (SK-OV-3 ovarian) was 605 nM and the TGI (SK-OV-3 ovarian) was > 50000 nM. The GI50 (HS 578T breast) was 188 nM, the TGI (HS 578T breast) was > 50000 nM and the GI50 (OVCAR-3 ovarian) was 168 nM. For the same compound, the TGI (OVCAR-3 ovarian) was 955 nM, the GI50 (UACC-62 melanoma) was 275 nM and the TGI (UACC-62 melanoma) was > 50000 nM. For the same compound, the GI50 (RPMI-8226 leukemia) was 1400 nM, the TGI (RPMI-8226 leukemia) was > 25500 nM and the GI50 (NCI-H23 lung) was 969 nM. For the same compound, the TGI (NCI-H23 lung) was > 50000 nM, the GI50 (HCT-15 colon) was 520 nM and the TGI (HCT-15 colon) was > 50000 nM. For the same compound, the GI50 (CCRF-CEM leukemia) was 475 nM, the TGI (CCRF-CEM leukemia) was > 50000 nM and the GI50 (MOLT-4 leukemia) was 747 nM. For the same compound, the TGI (MOLT-4 leukemia) was > 50000 nM, the GI50 (HOP-92 NSCLC) was 600 nM and the TGI (HOP-92 NSCLC) was 32300 nM. For the same compound, the GI50 (OVCAR-4 ovarian) was 1420 nM, the TGI (OVCAR-4 ovarian) was > 50000 nM and the GI50 (IGROV1 ovarian) was 655 nM. The TGI (IGROV1 ovarian) was > 50000 nM, the GI50 (MALME-3M melanoma) was 248 nM and the TGI (MALME-3M melanoma) was > 50000 nM. It also gave a GI50 (SNB-75 CNS) of 170 nM, a TGI (SNB-75 CNS) of 1850 nM and a GI50 (UO-31 renal) of 861 nM. For the same compound, the TGI (UO-31 renal) was > 50000 nM, the GI50 (SK-MEL-5 melanoma) was 214 nM and the TGI (SK-MEL-5 melanoma) was 7580 nM. The GI50 (KM12 colon) was 1070 nM and the TGI (KM12 colon) was 4800 nM.
